Series [1] can be described thus: Clearance in rat hepatocytes. It counts as ADME, cell-based, Hepatocyte.
Series [2] is described as follows: Clearance in mouse liver microsomes. It counts as ADME, Microsome. (In general: Liver microsomes are vesicles of endoplasmic reticulum, rich in cytochrome P450 enzymes.)
Series [3] has as its target T1, Solute carrier family 2, facilitated glucose transporter member 1 (Homo sapiens, UniProt P11166).
T1 sequence (P11166 whole entry): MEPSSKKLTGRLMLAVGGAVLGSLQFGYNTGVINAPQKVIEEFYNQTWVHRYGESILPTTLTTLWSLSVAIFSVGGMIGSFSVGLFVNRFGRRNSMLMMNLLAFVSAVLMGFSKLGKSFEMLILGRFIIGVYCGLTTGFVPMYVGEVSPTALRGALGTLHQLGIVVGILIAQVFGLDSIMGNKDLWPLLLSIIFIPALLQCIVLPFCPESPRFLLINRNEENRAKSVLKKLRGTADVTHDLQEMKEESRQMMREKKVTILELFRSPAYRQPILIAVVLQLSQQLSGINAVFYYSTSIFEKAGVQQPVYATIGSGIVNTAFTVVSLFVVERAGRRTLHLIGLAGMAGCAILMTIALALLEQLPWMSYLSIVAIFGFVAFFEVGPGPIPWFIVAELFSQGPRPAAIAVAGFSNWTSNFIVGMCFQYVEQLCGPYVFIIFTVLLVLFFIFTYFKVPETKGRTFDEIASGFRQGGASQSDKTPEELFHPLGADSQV
The series is described as follows: Inhibition of human GLUT1 expressed in human DLD-1 cells assessed as reduction in glucose uptake by measuring decrease in ATP production incubated for 15 mins in presence of oxidative phosphorylation inhibitor rotenone by CellTiter-Glo Luminescent Cell Viability Assay. The class given is cell-based. Background: ATP-based viability assays read luminescence as a measure of living cells.

Series [4] concerns the target T2, Solute carrier family 2, facilitated glucose transporter member 4 (Homo sapiens, UniProt P14672).
T2 sequence (P14672 whole entry): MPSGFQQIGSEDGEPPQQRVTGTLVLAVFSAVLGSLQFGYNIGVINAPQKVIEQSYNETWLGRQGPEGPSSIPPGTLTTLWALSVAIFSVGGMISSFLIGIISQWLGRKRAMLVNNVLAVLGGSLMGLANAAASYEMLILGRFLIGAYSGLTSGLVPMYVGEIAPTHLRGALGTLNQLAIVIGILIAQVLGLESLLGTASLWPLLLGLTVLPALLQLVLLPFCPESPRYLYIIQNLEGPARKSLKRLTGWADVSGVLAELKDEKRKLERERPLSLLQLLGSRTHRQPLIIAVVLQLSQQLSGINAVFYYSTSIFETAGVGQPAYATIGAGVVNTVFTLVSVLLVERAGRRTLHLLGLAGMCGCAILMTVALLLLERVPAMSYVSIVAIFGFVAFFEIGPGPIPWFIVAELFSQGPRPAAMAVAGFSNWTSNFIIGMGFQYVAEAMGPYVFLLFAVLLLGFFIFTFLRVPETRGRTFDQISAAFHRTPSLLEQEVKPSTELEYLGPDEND
The series is described as follows: Inhibition of human GLUT4 expressed in CHO cells assessed as reduction in glucose uptake by measuring decrease in ATP production preincubated for 20 mins followed by glucose addition and measured after 15 mins in presence of oxidative phosphorylation inhibitor rotenone by CellTiter-Glo Luminescent Cell Viability Assay. The class given is cell-based.

In series [5] the target is T3, Solute carrier family 2, facilitated glucose transporter member 3 (Homo sapiens, UniProt P11169).
T3 sequence (P11169 whole entry): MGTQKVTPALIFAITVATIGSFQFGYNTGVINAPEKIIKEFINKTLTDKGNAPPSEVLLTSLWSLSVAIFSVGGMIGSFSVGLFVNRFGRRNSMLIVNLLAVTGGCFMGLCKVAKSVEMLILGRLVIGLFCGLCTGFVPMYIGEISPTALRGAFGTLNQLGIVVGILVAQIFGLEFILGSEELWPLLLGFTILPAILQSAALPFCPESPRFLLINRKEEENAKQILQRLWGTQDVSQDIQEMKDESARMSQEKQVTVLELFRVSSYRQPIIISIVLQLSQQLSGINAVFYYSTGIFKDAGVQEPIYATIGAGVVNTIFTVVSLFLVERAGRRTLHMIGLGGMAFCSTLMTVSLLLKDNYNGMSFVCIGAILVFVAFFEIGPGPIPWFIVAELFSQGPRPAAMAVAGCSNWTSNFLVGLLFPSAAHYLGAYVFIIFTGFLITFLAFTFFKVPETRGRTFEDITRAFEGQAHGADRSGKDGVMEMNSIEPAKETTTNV
Description: Inhibition of human GLUT3 expressed in human GLUT1-/- DLD-1 cells assessed as reduction in glucose uptake by measuring decrease in ATP production incubated for 15 mins in presence of oxidative phosphorylation inhibitor rotenone by CellTiter-Glo Luminescent Cell Viability Assay. It counts as cell-based.

The nature of series [6]: Stability in rat hepatocytes assessed as maximum bioavailability. It counts as ADME, Hepatocyte. To be noted: read-out: Fmax.
The nature of series [7]: Stability in mouse liver microsomes assessed as maximum bioavailability. It counts as ADME, Microsome. Conditions: read-out: Fmax.
Series [8] in a line: Clearance in human liver microsomes. It counts as ADME, Microsome.
The nature of series [9]: Stability in human liver microsomes assessed as maximum bioavailability. It counts as ADME, Microsome. Conditions: read-out: Fmax.

`Cc1c(NC(=O)c2cc(-c3ncnn3C)nc3ccccc23)c(C(F)(F)F)nn1Cc1ccc(C#N)cc1`: the CLhep predicted is 31.7 mL/min/kg in series [1] and 35 mL/min/kg in [2].

One may read the IC50 as the concentration needed to halve the response being measured. In the case of `Cc1c(NC(=O)c2cc(C(N)=O)nc3cc(F)ccc23)c(C(F)(F)F)nn1Cc1ccc(OC(F)(F)F)cc1`, the half-inhibitory concentration (IC50) in series [3] amounted to 0.005 µM; in series [4] it was 0.37 µM.

As to `Cc1nn(Cc2ccc(C#N)cc2)c(C)c1NC(=O)c1cc(C(F)(F)F)nc2ccc(Br)cc12`, the CLhep predicted in series [2] is 56.7 mL/min/kg.

As to `Cc1nn(Cc2ccc(C#N)cn2)c(C)c1NC(=O)c1cc(C(F)(F)F)nc2ccc(Br)cc12`, the IC50 in [3] was 0.002 µM.

For `Cc1cccc2nc(C(N)=O)cc(C(=O)Nc3c(C(F)(F)F)nn(Cc4ccc(C#N)cc4)c3C)c12`, the figures for the IC50 in series [3], in series [5] and in [4] were 0.018 µM, 0.086 µM and 0.017 µM, respectively.

Turning to `Cc1ccc2nc(C(N)=O)cc(C(=O)Nc3c(C(F)(F)F)nn(Cc4ccc(C#N)cc4)c3C)c2c1`, the IC50 in [4] was found to be 0.12 µM. The CLhep predicted in series [1] is 33.3 mL/min/kg; in series [2] it was 38.3 mL/min/kg. Besides, the figures for the Fh in series [6] and in series [7] were 53% and 57%, respectively.

For `Cc1c(NC(=O)c2cc(-c3ccc(F)cc3)nc3ccccc23)c(C(F)(F)F)nn1Cc1ccc(C#N)cc1`, in [3], the IC50 stood at 0.92 µM.

On to `Cc1c(NC(=O)c2cc(C(N)=O)nc3cc(F)ccc23)c(C(F)(F)F)nn1Cc1ccccc1C#N`, for which the IC50 was 0.003 µM in [3] and 0.088 µM in series [4].

Regarding `Cc1nn(-c2ccc(F)cc2)c(C)c1NC(=O)c1cc(C(F)(F)F)nc2ccc(Br)cc12`, in [3], the IC50 is 0.47 µM.

As for `Cc1c(NC(=O)c2cc(C(=O)N3CC(O)C3)nc3cc(F)ccc23)c(C(F)(F)F)nn1Cc1ccc(C#N)cc1`, the IC50 in series [3] turned out to be 0.34 µM.

Consider `Cc1c(NC(=O)c2cc(C(N)=O)nc3cc(F)ccc23)c(C(F)(F)F)nn1Cc1ccc(C(F)(F)F)cc1`, for which the IC50 in series [3] is 0.009 µM; in series [4], 0.91 µM.

Regarding `Cc1c(NC(=O)c2cc(C(N)=O)nc3cc(F)ccc23)c(C(C)C)nn1Cc1ccc(C#N)cc1`, the IC50 in series [3] came to 0.007 µM. Moreover, the CLhep predicted in series [8] is 14.5 mL/min/kg. The Fh in series [9] was determined as 34%.

Regarding `Cc1cc(C)c2nc(-c3ccco3)cc(C(=O)Nc3c(C)nn(Cc4ccc(F)cc4)c3C)c2c1`, in series [1], the CLhep predicted was 63.3 mL/min/kg.

As to `Cc1ccc2nc(C)cc(C(=O)Nc3c(C)nn(Cc4ccc(F)cc4)c3C)c2c1`, the CLhep predicted in [1] is 61.7 mL/min/kg; in series [8], 20 mL/min/kg. The values for the Fh in series [9] and in [7] were 11% and 25%, respectively.

As to `Cc1c(NC(=O)c2cc(C(N)=O)nc3scnc23)c(C(F)(F)F)nn1Cc1ccc(C#N)cc1`, the IC50 is 0.035 µM in series [3] and 0.28 µM in series [4].

Consider `Cc1c(NC(=O)c2cc(C(N)=O)nc3cc(F)ccc23)c(C(F)(F)F)nn1Cc1cccc(C#N)c1`, for which the IC50 in series [4] is 0.95 µM.

On to `Cc1c(NC(=O)c2cc(C(N)=O)nc3cc(F)ccc23)c(C(F)(F)F)nn1Cc1cnc(C#N)cn1`, for which the IC50 in series [3] was determined as 0.005 µM; in [4] it was 0.016 µM. Besides, the CLhep predicted in series [1] was 20 mL/min/kg; in series [8], 8.83 mL/min/kg. Moreover, the Fh is 72% in series [6] and 60% in [9].

On to `Cc1c(NC(=O)c2cc(C(N)=O)nc3cc(F)cc(F)c23)c(C(F)(F)F)nn1Cc1ccc(C#N)cc1`, for which the IC50 came out at 0.001 µM in [3], 0.47 µM in [5] and 0.016 µM in series [4].

Regarding `Cc1c(NC(=O)c2cc(C(N)=O)nc3cc(F)ccc23)c(C(F)(F)F)nn1Cc1ncc(C#N)cn1`, the IC50 in series [3] turned out to be 0.026 µM. Also, the CLhep predicted is 14.8 mL/min/kg in series [1] and 3.67 mL/min/kg in series [8]. In addition, the Fh in series [6] amounted to 79%; in series [9] it was 83%.

For the compound `Cc1cccc(Cn2nc(C(F)(F)F)c(NC(=O)c3cc(C(N)=O)nc4cc(F)ccc34)c2C)c1`, the IC50 in series [3] came to 0.011 µM; in series [4], 0.61 µM.

For `COc1ccc2nc(C(N)=O)cc(C(=O)Nc3c(C(F)(F)F)nn(Cc4ccc(C#N)cc4)c3C)c2c1`, the figures for the IC50 in series [5] and in series [4] were 0.11 µM and 0.013 µM, respectively.

For the compound `Cc1nn(CCc2ccc(F)cc2)c(C)c1NC(=O)c1cc(C(F)(F)F)nc2ccc(Br)cc12`, the IC50 in series [4] was found to be 0.34 µM.

Take `Cc1c(NC(=O)c2cc(C(N)=O)nc3cccc(F)c23)c(C(F)(F)F)nn1Cc1ccc(C#N)cc1`: the IC50 amounted to 0.003 µM in series [3], 0.23 µM in series [5] and 0.094 µM in series [4].

With `Cc1nn(Cc2ccc(C#N)cc2)c(C)c1NC(=O)c1cc(C(N)=O)nc2cc(F)ccc12`, the figures for the CLhep predicted in [1], in series [8] and in series [2] were 16.7 mL/min/kg, 7.5 mL/min/kg and 11.2 mL/min/kg, respectively.

For the compound `Cc1c(NC(=O)c2cc(C(N)=O)nc3ccc(F)cc23)c(C(F)(F)F)nn1Cc1ccc(C#N)cc1`, the IC50 in [3] came out at 0.005 µM; in series [5], 0.29 µM; in series [4], 0.044 µM.

Turning to `Cc1nn(Cc2ccc(C#N)cc2F)c(C)c1NC(=O)c1cc(C(F)(F)F)nc2ccc(Br)cc12`, the IC50 came to 0.008 µM in series [3] and 0.87 µM in [4].

With `Cc1c(NC(=O)c2cc(C(N)=O)nc3cc(F)c(F)cc23)c(C(F)(F)F)nn1Cc1ccc(C#N)cc1`, the IC50 in series [3] turned out to be 0.002 µM; in [4], 0.18 µM.

Take `Cc1nc(C)c(-c2cc(C(=O)Nc3c(C(F)(F)F)nn(Cc4ccc(C#N)cc4)c3C)c3ccccc3n2)s1`: the IC50 in [3] was found to be 0.76 µM; in [4] it was 0.91 µM.

Consider `Cc1c(NC(=O)c2ccnc(C(N)=O)c2)c(C(F)(F)F)nn1Cc1ccc(C#N)cc1`, for which the IC50 in [3] amounted to 0.2 µM.

On to `Cc1nn(Cc2ccc(F)cc2)c(C)c1N`, for which the IC50 in [3] was found to be 0.96 µM.

In the case of `Cc1c(NC(=O)c2cc(-c3cccnc3)nc3ccccc23)c(C(F)(F)F)nn1Cc1ccc(C#N)cc1`, in [3], the IC50 turned out to be 0.074 µM.

Consider `CCc1ccc(Cn2nc(C(F)(F)F)c(NC(=O)c3cc(C(N)=O)nc4cc(F)ccc34)c2C)cc1`, for which the CLhep predicted in series [1] was 48.3 mL/min/kg; in series [8], 16.5 mL/min/kg.

`Cc1c(NC(=O)c2cc(C(N)=O)nc3cnccc23)c(C(F)(F)F)nn1Cc1ccc(C#N)cc1`: the IC50 in series [3] is 0.01 µM; in series [4] it was 0.061 µM.

As for `Cc1ccccc1Cn1nc(C(F)(F)F)c(NC(=O)c2cc(C(N)=O)nc3cc(F)ccc23)c1C`, in series [3], the IC50 was 0.007 µM.

For `Cc1nn(Cc2ccc(F)cc2)c(C)c1NC(=O)c1cc(C(F)(F)F)nc2ccc(Br)cc12`, the CLhep predicted in series [1] was 48.3 mL/min/kg; in [2] it was 75 mL/min/kg.

Consider `Cc1c(NC(=O)c2cc(C(=O)NCCN3CCOCC3)nc3cc(F)ccc23)c(C(F)(F)F)nn1Cc1ccc(C#N)cc1`, for which, in series [3], the IC50 turned out to be 0.34 µM.

`Cc1c(NC(=O)c2cc(C(N)=O)nc3ncccc23)c(C(F)(F)F)nn1Cc1ccc(C#N)cc1`: the IC50 was 0.045 µM in series [3], 0.3 µM in series [5] and 1 µM in series [4].

Source of the values: ChEMBL document CHEMBL5653626 (ChemMedChem, 2016).
